Laboratory results: US20210253528A1, “CHEMICAL COMPOUNDS” (GLAXOSMITHKLINE INTELLECTUAL PROPERTY DEVELOPMENT LIMITED, priority 2018, published 2021)

Tested on: ATF4 translation
Experiment: ATF4 Cell Based Assay (ATF4 reporter assay, NanoLuc luciferase fused to ATF4 5'-UTR, thapsigargin-induced stress)
Conditions: SH-SY5Y-ATF4-NanoLuc cells, 200 nM thapsigargin, overnight (typically 19 hours); average of a set of two or more experimental runs; read-out: average ATF4 pathway inhibitory activity IC50
From the text: The ATF4 reporter assay measures the effect of thapsigargin-induced cellular stress on ATF4 expression. For this reporter assay, a stable cell line was created by transfecting SH-SY5Y cells with a plasmid containing the NanoLuc® luciferase gene fused to the 5′-UTR of ATF4, under the control of the CMV promoter. The ATF4 5′-UTR contains two open reading frames which mediate the cellular stress-dependent translation of the reporter gene. Clones stably expressing the reporter construct were isolated and selected based on the luminescence response to thapsigargin and inhibition of this signal by test compounds. Briefly, SH-SY5Y-ATF4-NanoLuc cells were challenged with thapsigargin to determine the stress effect with or without test compounds. Cells were propagated in DMEM/F12 growth media containing 10% FBS (Invitrogen 10999-141) and 0.5 mg/mL geneticin (Corning 30-234-CR). Aliquots of cells were cryopreserved in dialyzed FBS containing 10% DMSO.
Test compounds were prepared in neat DMSO at a concentration of 10 mM. Assay plates were prepared by adding 250 nL of compound stock solution to test wells in a 384-well white tissue culture-treated plate (Greiner 781073). For inhibition curves, compounds were diluted using a three-fold serial dilution and tested at 11 concentrations (10 μM-0.17 nM).
Aliquots of frozen cells were thawed with a 37C water bath. The cells were washed using DMEM/F12 (1:1) (1×) (Gibco 11039-021). The cells were re-suspended in the DMEM/F12 and the suspension was counted. A final suspension of 7.5e5 cells/ml was prepared.
A volume of 20 uL of cell suspension was added to compound plates (15K cells/well). Cells were incubated for 1 hour at 37° C. A volume of 5 μL of 1 uM Thapsigargin solution was added to each well, resulting in a final concentration of 200 nM. Assay plates were then incubated at 37 C overnight, typically for 19 hours.
The measurement of luciferase produced by the ATF4 constructs was measured using Nano-Glo Luciferase Assay reagent, Promega N1150. (The components of the Promega kit are: Nano-Glo® Luciferase Assay Substrate, N113C, Nano-Glo® Luciferase Assay Buffer, N1128.) The buffer is brought to room temperature, and a solution of 50:1 buffer:substrate were prepared. The cell plates were equilibrated to room temperature. A volume of 20 microliters/well of the mixed Nano-Glo reagent were dispensed into assay and control wells. The plates were read on a Viewlux plate reader.

How did the IC50 turn out when `O=C(COc1ccc(Cl)cc1)NC12CC(CNC(=O)Nc3ccc(Cl)c(Cl)c3)(C1)C2` [Example 22, 2-(4-chlorophenoxy)-N-(3-((3-(3,4-dichlorophenyl)ureido)methyl)bicyclo[1.1.1]pentan-1-yl)acetamide] was run?
The IC50 was 6 nM.

How did the IC50 turn out when `O=C(COc1ccc(Cl)c(F)c1)NC12CC(COC(=O)Nc3ccc(Cl)cc3)(C1)C2` [Example 3, (3-(2-(4-chloro-3-fluorophenoxy)acetamido)bicyclo[1.1.1]pentan-1-yl)methyl (4-chlorophenyl)carbamate] was run?
Its IC50 is 25 nM.

With `O=C(CNc1ccc(Cl)cc1)NC12CC(COC(=O)Nc3ccc(Cl)c(F)c3)(C1)C2` [Example 18, (3-(2-((4-chlorophenyl)amino)acetamido)bicyclo [1.1.1]pentan-1-yl) methyl (4-chloro-3-fluorophenyl carbamate] as the molecule, how does the IC50 read?
Its IC50 is 1260 nM.

Which IC50 does the source give for `O=C(COc1ccc(Cl)cc1)NC12CC(CNC(=S)Nc3ccc(Cl)cc3)(C1)C2` [Example 6a, 2-(4-chlorophenoxy)-N-(3-((3-(4-chlorophenyl)thioureido)methyl)bicyclo[1.1.1]pentan-1-yl)acetamide] here?
The IC50 was 126 nM.

How did the IC50 turn out when `O=C(COc1ccc(F)cc1)NC12CC(COC(=O)Nc3ccc(Cl)c(F)c3)(C1)C2` [Example 14, (3-(2-(4-fluorophenoxy)acetamido)bicyclo [1.1.1]pentan-1-yl)methyl (4-chloro-3-fluorophenyl) carbamate] was run?
The IC50 was 79 nM.

For `O=C(COc1ccc(Cl)cc1)NC12CC(COC(=O)Nc3ccc(Cl)cc3)(C1)C2` [Example 1, (3-(2-(4-Chlorophenoxy)acetamido)bicyclo[1.1.1]pentan-1-yl)methyl (4-chlorophenyl)carbamate], which IC50 is on record?
The IC50 was 25 nM.

For `O=C(COc1ccc(Cl)c(Cl)c1)NC12CC(COC(=O)Nc3ccc(Cl)cc3)(C1)C2` [Example 12, (3-(2-(3,4-dichlorophenoxy)acetamido)bicyclo [1.1.1]pentan-1-yl)methyl (4-chlorophenyl) carbamate], which IC50 is on record?
The IC50 was 32 nM.

Which IC50 does the source give for `O=C(COc1ccc(Cl)c(F)c1)NC12CCC(COC(=O)Nc3ccc(Cl)c(F)c3)(C1)C2` [Example 26, (4-(2-(4-chloro-3-fluorophenoxy)acetamido)bicyclo[2.1.1]hexan-1-yl)methyl (4-chloro-3-fluorophenyl) carbamate] here?
Its IC50 is 80 nM.

With `O=C(COc1ccc(Cl)c(F)c1)NC12CC(COC(=O)Nc3ccc(Cl)c(Cl)c3)(C1)C2` [Example 10, (3-(2-(4-chloro-3-fluorophenoxy)acetamido)bicyclo [1.1.1]pentan-1-yl)methyl (3,4-dichlorophenyl) carbamate] as the molecule, how does the IC50 read?
Its IC50 is 25 nM.

With `O=C(COc1ccc(Cl)cc1)NC12CC(CNC(=O)Nc3ccc(Cl)cc3)(C1)C2` [Example 4, 2-(4-Chlorophenoxy)-N-(3-((3-(4-chlorophenyl)ureido)methyl)bicyclo[1.1.1]pentan-1-yl)acetamide] as the molecule, how does the IC50 read?
Its IC50 is 10 nM.

For `O=C(COc1ccc(F)c(F)c1)NC12CC(COC(=O)Nc3ccc(F)c(F)c3)(C1)C2` [Example 16, (3-(2-(3,4-difluorophenoxy)acetamido)bicyclo [1.1.1]pentan-1-yl)methyl (3,4-difluorophenyl) carbamate], which IC50 is on record?
The IC50 was 158 nM.

For `O=C(Nc1ccc(Cl)c(F)c1)OCC12CC(NC(=O)c3ccc4c(c3)OC(F)(F)O4)(C1)C2` [Example 19, (3-(2,2-difluorobenzo[d] [1,3]dioxole-5-carboxamido)bicyclo[1.1.1]pentan-1-yl)methyl (4-chloro-3-fluorophenyl) carbamate], which IC50 is on record?
The IC50 was 158 nM.

How did the IC50 turn out when `O=C(COc1ccc(Cl)c(F)c1)NC12CC(CNC(=O)Nc3ccc(Cl)c(Cl)c3)(C1)C2` [Example 23, 2-(4-chloro-3-fluorophenoxy)-N-(3-((3-(3,4-dichlorophenyl)ureido)methyl)bicyclo[1.1.1]pentan-1-yl)acetamide] was run?
The IC50 was 8 nM.

How did the IC50 turn out when `O=C(COc1ccc(Cl)c(C(F)(F)F)c1)NC12CC(COC(=O)Nc3ccc(Cl)c(F)c3)(C1)C2` [Example 8a, (3-(2-(4-chloro-3-(trifluoromethyl)phenoxy)acetamido)bicyclo[1.1.1]pentan-1-yl)methyl (4-chloro-3-fluorophenyl)carbamate] was run?
The IC50 was 79 nM.
